The target in this experiment is Solute carrier family 22 member 3 (Homo sapiens) (UniProt O75751). The experiment can be described thus: OCT3 (SLC22A3) uptake inhibitors, dose response, HEK293 JumpIn overexpressing cells, impedance, MPP+ (AID 1745861). To be noted: impedance (xCELLigence).
Solute carrier family 22 member 3 (Homo sapiens), sequence (O75751 whole entry, looked up): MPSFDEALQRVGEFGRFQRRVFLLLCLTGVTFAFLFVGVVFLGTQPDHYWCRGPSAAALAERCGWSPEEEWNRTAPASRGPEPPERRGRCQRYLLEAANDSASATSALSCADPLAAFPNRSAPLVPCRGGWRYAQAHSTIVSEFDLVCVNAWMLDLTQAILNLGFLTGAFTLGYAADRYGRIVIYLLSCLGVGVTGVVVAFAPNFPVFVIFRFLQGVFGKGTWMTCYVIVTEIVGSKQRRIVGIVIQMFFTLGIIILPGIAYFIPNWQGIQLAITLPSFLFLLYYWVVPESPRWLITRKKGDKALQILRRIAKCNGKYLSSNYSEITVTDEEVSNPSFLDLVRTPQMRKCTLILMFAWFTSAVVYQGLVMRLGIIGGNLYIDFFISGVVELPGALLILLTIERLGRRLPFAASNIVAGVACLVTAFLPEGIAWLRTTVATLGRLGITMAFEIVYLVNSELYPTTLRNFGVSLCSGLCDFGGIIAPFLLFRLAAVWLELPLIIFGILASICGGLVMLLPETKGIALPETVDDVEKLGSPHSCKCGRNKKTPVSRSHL
In the case of `C[C@]12C[C@H](O)[C@H]3[C@@H](CCC4=CC(=O)CC[C@@]43C)[C@@H]1CC[C@@H]2C(=O)CO`, the IC50 was 1.6 µM.

On to `Cc1cn(-c2cc(NC(=O)c3ccc(C)c(Nc4nccc(-c5cccnc5)n4)c3)cc(C(F)(F)F)c2)cn1`, for which the IC50 was 0.5 µM.

For the compound `CCN1/C(=C/c2ccc3ccccc3[n+]2CC)C=Cc2ccccc21`, the IC50 was 0.4 µM.

Consider `C[n+]1ccc(-c2ccccc2)cc1`, for which the IC50 was 199 µM.

With `C=CC(=O)N1CCC[C@@H](n2nc(-c3ccc(Oc4ccccc4)cc3)c3c(N)ncnc32)C1`, the IC50 was 7.9 µM.
